From patent US20080299101A1, “Cancer Treatment Resistance and Agents Modulating Such Resistance” (CENTRE NATIONAL DE LA RECHERCHE SCIENTIFIQUE (CNRS INSTITUT …, priority 2004, published 2008)
Entries after “also recorded” stand apart in the source; their conditions may differ. *1 amine or outer side, *2 acyl side, *3 side chain or, on linkers, in order; H or OH if unused. Where a SMILES comes first, the peptide text is derived from it. Bridges are numbered along the chain shown (N, C = ends). Roman numbers before positions name the chains, in order. [ ]: non-standard residue; d: D form. Actinocin(9to1) = Cc1c2oc3c(C)ccc(C(=O)[*:1])c3nc-2c(C(=O)[*:2])c(N)c1=O; NMeV = CN[C@H](C(=O)O)C(C)C; Sar = CNCC(=O)O

Legend:
[1] = tested on: HCT116/S, HCT116/R1, HCT116/R2; test: Modulation of oxaliplatin cytotoxicity using actinomycin D preincubation (statement in words); format: cell-based; details: preincubation at moderately toxic concentrations; preliminary
[2] = tested on: HCT116/R2; details: oxaliplatin 0 μM (actD alone)
Procedure: (§1) Cytotoxicity assays were performed by seeding 4000 cells per well in 96 well plates. […] Cytotoxicity measurements were carried out using the WST-1 colorimetric assay (Boehringer Mannheim) according to the manufacturer's recommendation.

[3] = tested on: HCT116/R1; details: oxaliplatin 0 μM (actD alone)
Procedure: as §1

[4] = tested on: HCT116/S; details: oxaliplatin 0 μM (actD alone)
Procedure: as §1

SMILES: Cc1c2oc3c(C)ccc(C(=O)N[C@@H]4C(=O)N[C@H](C(C)C)C(=O)N5CCC[C@H]5C(=O)N(C)CC(=O)N(C)[C@@H](C(C)C)C(=O)O[C@@H]4C)c3nc-2c(C(=O)N[C@@H]2C(=O)N[C@H](C(C)C)C(=O)N3CCC[C@H]3C(=O)N(C)CC(=O)N(C)[C@@H](C(C)C)C(=O)O[C@@H]2C)c(N)c1=O [actD, actinomycin D] (I: T[dV]P[Sar][NMeV] / II: T[dV]P[Sar][NMeV]; ester I:1-I:C, II:1-II:C; linker I:N-II:N via Actinocin(9to1))
- Effect of actinomycin D preincubation on oxaliplatin activity [1]: synergy effect; also recorded: synergistic effect
- Cytotoxicity of oxali + actD 0.04 nM ([2]; actD 0.04 nM): 20.6%
- Cytotoxicity of oxali + actD 0.12 nM ([2]; actD 0.12 nM): 17.7%
- Cytotoxicity of oxali + actD 0.36 nM ([2]; actD 0.36 nM): 21.6%
- Cytotoxicity of oxali + actD 0.04 nM ([3]; actD 0.04 nM): 17.3%
- Cytotoxicity of oxali + actD 0.12 nM ([3]; actD 0.12 nM): 18%
- Cytotoxicity of oxali + actD 0.04 nM ([4]; actD 0.04 nM): 9.1%
- Cytotoxicity of oxali + actD 0.12 nM ([4]; actD 0.12 nM): 27.6%
- Cytotoxicity of oxali + actD 0.36 nM ([4]; actD 0.36 nM): 85.4%
